In patent US4156016A, “Indole compounds and process for their preparation” (Hoffmann-La Roche Inc., priority 1977, dated 1979):
Like-named read-outs stand apart in the source and are kept apart here.

Columns and labels:
[1] = system: arachidonic acid induced diarrhea; assay: Arachidonic acid diarrhea prevention (mice); format: in vivo, Carworth Farm CF-1 male mice; details: Mus musculus, po
Protocol: Carworth Farm CF-1 male mice weighing 18-20 grams were administered the test compound by either the oral or intraperitoneal route one hour prior to the intraperitoneal administration of 4 mg/kg of arachidonic acid (Hoffmann-La Roche Inc.). […] The diarrhea was graded on paper towels as follows: 0=solid pellet or no bowel movement; 1=slightly soft pellet with little or no wet ring formation; 2=moderately soft pellet with definite wet ring formation; 3=soft pellet with large wet ring formation; and 4=amorphous pellet with very large wet ring formation.
The calculation of the ED50 was made according to the method of Miller et al., Proc. Soc.

[2] = target: T1, Prostaglandin synthetase (Ovis aries, UniProt P05979); assay: Prostaglandin synthetase inhibition; format: biochemical; details: read-out: PG synthetase IC50
T1 construct: from tissue
T1 sequence (P05979 25-600): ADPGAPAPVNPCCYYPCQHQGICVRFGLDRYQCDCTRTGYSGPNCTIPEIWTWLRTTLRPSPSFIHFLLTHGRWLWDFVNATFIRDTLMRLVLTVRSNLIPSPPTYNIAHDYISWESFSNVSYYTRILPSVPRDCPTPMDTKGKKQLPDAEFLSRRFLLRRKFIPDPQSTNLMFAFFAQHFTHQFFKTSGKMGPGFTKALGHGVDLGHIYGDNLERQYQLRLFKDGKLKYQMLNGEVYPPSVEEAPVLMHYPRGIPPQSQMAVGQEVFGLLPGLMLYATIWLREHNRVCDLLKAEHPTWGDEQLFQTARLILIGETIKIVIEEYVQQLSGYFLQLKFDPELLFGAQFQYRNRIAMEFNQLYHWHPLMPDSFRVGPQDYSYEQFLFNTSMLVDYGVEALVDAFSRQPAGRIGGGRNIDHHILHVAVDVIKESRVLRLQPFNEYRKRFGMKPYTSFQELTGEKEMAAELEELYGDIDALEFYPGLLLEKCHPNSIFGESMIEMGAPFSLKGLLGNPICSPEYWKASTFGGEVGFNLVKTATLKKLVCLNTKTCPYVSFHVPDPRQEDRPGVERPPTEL

[3] = system: Collagen-Induced Platelet Aggregation; assay: Inhibition of collagen-induced platelet aggregation in human platelet-rich plasma; format: cell-based; details: for inhibition at 2.5 µM / inhibition at 5 µM / inhibition at 15 µM / inhibition at 25 µM / inhibition at 50 µM: read-out: Percent Inhibition
Protocol: (§1) Venous blood was collected from human volunteers in siliconized 20 ml. […] Platelet rich plasma (PRP) was separated from the red blood cells by centrifugation at 180×g for 15 minutes at room temperature. Platelet poor plasma (PPP) was prepared by centrifuging PRP at 1000×g for 2 minutes.
(§2) Techniques established by Born et al., J. Physiol. […] PRP (1 ml.) was added to a siliconized cuvette containing a siliconized stirring bar and placed in a densitometer maintained at 37° C. and stirred at 1000 RPM. Various concentrations of test compounds were added in 50 μl of saline and incubated with PRP for 5 minutes. Aggregation was initiated by the addition of sufficient concentrations of ADP (Sigma Chemical Co.), epinephrine HCl (Parke, Davis & Co., Detroit, Michigan), or human mammary gland collagen (obtained from Roosevelt Hospital, N.Y.) to give about 60% of maximum aggregation response. The light transmission through PPP was used to determine maximum response. The percent inhibition of aggregation caused by the drug was calculated from the strip chart recordings at the point of maximum collagen response.

[4] = system: Epinephrine induced aggregation; assay: Inhibition of epinephrine-induced platelet aggregation (second wave) in human platelet-rich plasma; format: cell-based; details: for inhibition at 10 µM / inhibition at 20 µM / inhibition at 25 µM / inhibition at 50 µM / inhibition at 100 µM: Homo sapiens, Platelet, read-out: Percent Inhibition
Protocol: as §1, §2

[5] = Acute toxicity in mice; details: mouse, in vivo
Protocol: CF-IS mice of both sexes weighing 17-25 grams were used. The compounds were ground in a mortar and suspended in 5% gum acacia for oral or intraperitoneal administration. Eight to ten mice were used per dose level. […] The LD50 was calculated by the method of Miller et al., Proc. Soc. Exp. Biol. Med., 57, pages 261-264 (1944).

[6] = Central and peripheral pharmacological activity (statement)
[7] = system: human blood-platelet aggregation; assay: Inhibition of human blood-platelet aggregation (general statement)
[8] = system: prostaglandin formation; assay: Inhibition of prostaglandin formation (general statement)
[9] = Ulcerogenicity (general statement)

With `N#Cc1[nH]c2ccc(C(O)(C(F)(F)F)C(F)(F)F)cc2c1-c1ccccc1` [nitrile, 3-Phenyl-5-[2,2,2-trifluoro-1-hydroxy-1-(trifluoromethyl)ethyl]indole-2-carbonitrile] the ED50 [1] was 5 mg/kg, the IC50 [2] was 0.5 µM and the Δ light transmission ([3]; 2.5 μM, Expt. I) was 49 units. For the same compound, the Δ light transmission ([3]; 2.5 μM, Expt. II) was 50 units, the Δ light transmission ([3]; 5 μM, Expt. I) was 24 units and the Δ light transmission ([3]; 5 μM, Expt. II) was 20 units. For the same compound, the Δ light transmission ([3]; 15 μM, Expt. I) was 8 units, the Δ light transmission ([3]; 15 μM, Expt. II) was 7 units and the Δ light transmission ([3]; 25 μM, Expt. I) was 5 units. It also gave a Δ light transmission ([3]; 25 μM, Expt. II) of 5 units, a Δ light transmission ([3]; 50 μM, Expt. I) of 4 units and a Δ light transmission ([3]; 50 μM, Expt. II) of 3 units. It also gave an inhibition at 2.5 µM ([3]; Homo sapiens, Platelet, 2.5 μM, Expt. I) of 24.6%, an inhibition at 2.5 µM ([3]; Homo sapiens, Platelet, 2.5 μM, Expt. II) of 16.7% and an inhibition at 5 µM ([3]; Homo sapiens, Platelet, 5 μM, Expt. I) of 63.1%. For the same compound, the inhibition at 5 µM ([3]; Homo sapiens, Platelet, 5 μM, Expt. II) was 66.6%, the inhibition at 15 µM ([3]; Homo sapiens, Platelet, 15 μM, Expt. I) was 87.7% and the inhibition at 15 µM ([3]; Homo sapiens, Platelet, 15 μM, Expt. II) was 88.3%. For the same compound, the inhibition at 25 µM ([3]; Homo sapiens, Platelet, 25 μM, Expt. I) was 92.4%, the inhibition at 25 µM ([3]; Homo sapiens, Platelet, 25 μM, Expt. II) was 91.6% and the inhibition at 50 µM ([3]; Homo sapiens, Platelet, 50 μM, Expt. I) was 93.8%. For the same compound, the inhibition at 50 µM ([3]; Homo sapiens, Platelet, 50 μM, Expt. II) was 95%, the IC50 ([3]; Homo sapiens, Platelet, Table 7, read-out: Inhibition of collagen-induced platelet aggregation, Activity IC50) was 3.5 µM and the IC50 ([3]; incubation in human citrated platelet-rich plasma, read-out: IC50 collagen) was 3.5 µM. For the same compound, the Δ light transmission ([4]; 10 μM, Expt. I) was 45 units, the Δ light transmission ([4]; 10 μM, Expt. II) was 47 units and the Δ light transmission ([4]; 20 μM, Expt. I) was 30 units. The Δ light transmission ([4]; 20 μM, Expt. II) was 34 units, the Δ light transmission ([4]; 25 μM, Expt. I) was 25 units and the Δ light transmission ([4]; 25 μM, Expt. II) was 30 units. For the same compound, the Δ light transmission ([4]; 50 μM, Expt. I) was 18 units, the Δ light transmission ([4]; 50 μM, Expt. II) was 14 units and the Δ light transmission ([4]; 100 μM, Expt. I) was 11 units. The Δ light transmission ([4]; 100 μM, Expt. II) was 9 units, the inhibition at 10 µM ([4]; 10 μM, Expt. I) was 0% and the inhibition at 10 µM ([4]; 10 μM, Expt. II) was 6%. The inhibition at 20 µM ([4]; 20 μM, Expt. I) was 33.3%, the inhibition at 20 µM ([4]; 20 μM, Expt. II) was 32% and the inhibition at 25 µM ([4]; 25 μM, Expt. I) was 44.4%. The inhibition at 25 µM ([4]; 25 μM, Expt. II) was 40%, the inhibition at 50 µM ([4]; 50 μM, Expt. I) was 60% and the inhibition at 50 µM ([4]; 50 μM, Expt. II) was 71%. For the same compound, the inhibition at 100 µM ([4]; 100 μM, Expt. I) was 75%, the inhibition at 100 µM ([4]; 100 μM, Expt. II) was 82% and the IC50 ([4]; incubation in human citrated platelet-rich plasma) was 40 µM. The LD50 at 120 h ([5]; ip) was 750 mg/kg, the LD50 at 120 h ([5]; po) was over 1000 mg/kg and the “central and peripheral pharmacological activity (in words)” value [6] was “devoid of central and peripheral pharmacological activity”. The “inhibition of human blood-platelet aggregation (in words)” value [7] was “inhibit prostaglandin formation and human blood-platelet aggregation”, the “inhibition of prostaglandin formation (in words)” value [8] was “inhibit prostaglandin formation” and the “ulcerogenicity (in words)” value [9] was “non-ulcerogenic”.
